Like-named read-outs stand apart in the source and are kept apart here. Marks after values point to notes of the source that are not given here.
Key:
[1] = Measurement of log P values by HPLC on reversed phase columns (EEC directive 79/831 Annex V.A8); conditions: for chromatographic logP: pH 2.7; for LogP: method [a], HPLC on reversed phase columns
Plasmopara viticola = test: Plasmopara test (grapevines)/preventive; assay type: in vivo; conditions: preventive spray, 10 ppm of active ingredient, evaluated 6 days after inoculation
Experimental: Solvent: 24.5 parts by weight of acetone • 24.5 parts by weight of dimethylacetamide
Emulsifier: 1 part by weight of alkylaryl polyglycol ether
To produce a suitable preparation of active compound, 1 part by weight of active compound is mixed with the stated amounts of solvent and emulsifier, and the concentrate is diluted with water to the desired concentration.
To test for preventive activity, young plants are sprayed with the preparation of active compound at the stated rate of application. After the spray coating has dried on, the plants are inoculated with an aqueous spore suspension of Plasmopara viticola and then remain for 1 day in an incubation cabinet at approximately 20° C. and a relative atmospheric humidity of 100%. The plant is subsequently placed for 4 days in a greenhouse at approximately 21° C. and a relative atmospheric humidity of approximately 90%. The plants are then misted and placed for 1 day in an incubation cabinet.
The test is evaluated 6 days after the inoculation. 0% means an efficacy which corresponds to that of the untreated control, while an efficacy of 100% means that no disease is observed.

Phytophthora infestans [2] = assay type: in vivo; conditions: tomato, preventive spray, 100 ppm of active ingredient, evaluated 7 days after inoculation
[3] = pH 2.7
Phytophthora infestans [4] = assay type: in vivo; conditions: tomato plants, spray, 500 ppm, grading 5 days after contamination
[5] = system: Mycosphaerella graminicola; test: In vivo test on Mycosphaerella graminicola (wheat leaf spot); conditions: wheat plants, spray, 500 ppm, grading 21 to 28 days after contamination
Experimental: The active ingredients tested are prepared by homogenization in a mixture of acetone/tween/DMSO, then diluted with water to obtain the desired active material concentration.
Wheat plants (Scipion variety), sown on a 50/50 peat soil-pozzolana substrate in starter cups and grown at 22° C. (12 h)/20° C. (12 h), are treated at the 1-leaf stage (10 cm tall) by spraying with the aqueous suspension described above. Plants, used as controls, are treated with an aqueous solution not containing the active material.
After 24 hours, the plants are contaminated by spraying them with an aqueous suspension of cryopreserved Mycosphaerella graminicola spores (500.000 spores per ml). The contaminated wheat plants are incubated for 72 hours at 18° C. and at 100% relative humidity, and then for 21 to 28 days at 90% relative humidity.
Grading (% of efficacy) is carried out 21 to 28 days after the contamination, in comparison with the control plants.
(§1) Under these conditions, good (at least 70%) or total protection is observed at a dose of 500 ppm with the following compounds: […]

Puccinia recondita = test: In vivo test on Puccinia recondita (brown rust); conditions: wheat plants, spray, 500 ppm, grading 10 days after contamination
Experimental: The active ingredients tested are prepared by homogenization in a mixture of acetone/tween/DMSO, then diluted with water to obtain the desired active material.
Wheat plants (Scipion variety) sown on 50/50 peat soil-pozzolana substrate in starter cups and grown at 22° C. (12 h)/20° C. (12 h), are treated at the 1-leaf stage (10 cm tall) by spraying with the aqueous suspension described above.
Plants, used as controls, are treated with an aqueous solution not containing the active material. After 24 hours, the plants are contaminated by spraying the leaves with an aqueous suspension of Puccinia recondite spores (100.000 spores per ml). The spores are collected from a 10-day-old contaminated wheat and are suspended in water containing 2.5 ml/l of tween 80 10%. The contaminated wheat plants are incubated for 24 hours at 20° C. and at 100% relative humidity, and then for 10 days at 20° C. and at 70% relative humidity. Grading is carried out 10 days after the contamination, in comparison with the control plants.
as §1

Cn1c(/C(=N\OCc2cccc(N)n2)c2ccccc2)noc1=O [Example 1, 3-[(Z)-{[(6-aminopyridin-2-yl)methoxy]imino}(phenyl)methyl]-4-methyl-1,2,4-oxadiazol-5(4H)-one]
chromatographic logP [1]: 1.14

Cn1c(/C(=N\OCc2csc(N)n2)c2ccccc2)noc1=O [Example 4, 3-[(Z)-{[(2-amino-1,3-thiazol-4-yl)methoxy]imino}(phenyl)methyl]-4-methyl-1,2,4-oxadiazol-5(4H)-one]
chromatographic logP [1]: 1.54

C=CCCCOC(=O)Nc1cccc(CO/N=C(/c2ccccc2)c2noc(=O)n2C)n1 [Example 6]
Eff. % (Plasmopara viticola): 100% | Eff. % (Phytophthora infestans [2]): 98% | LogP [1]: 4.06 [a]

Nc1cccc(CO/N=C(/c2ccccc2)c2noc(=O)[nH]2)n1 [Example 23, 3-[(Z)-{[(6-aminopyridin-2-yl)methoxy]imino}(phenyl)methyl]-1,2,4-oxadiazol-5(4H)-one]
chromatographic logP [1]: 1.36

Nc1nc(CO/N=C(/c2ccccc2)c2noc(=O)[nH]2)cs1 [Example 24, 3-[(Z)-{[(2-amino-1,3-thiazol-4-yl)methoxy]imino}(phenyl)methyl]-1,2,4-oxadiazol-5(4H)-one]
chromatographic logP [1]: 1.58

Cn1c(/C(=N/OCc2cccc(N)n2)c2ccccc2)noc1=O [Example 25, 3-[(E)-{[(6-aminopyridin-2-yl)methoxy]imino}(phenyl)methyl]-4-methyl-1,2,4-oxadiazol-5(4H)-one]
chromatographic logP [1]: 1.14

Cc1cccc(/C(=N/OCc2cccc(N)n2)c2noc(=O)n2C)c1 [Example 30]
LogP [3]: 1.45 [a] | Eff. % (Phytophthora infestans [4]): 100% | Eff. % [5]: 86%

C#CCCCCC(=O)Nc1cccc(CO/N=C(/c2ccccc2)c2noc(=O)n2C)n1 [Example 37]
Eff. % (Plasmopara viticola): 80% | Eff. % (Phytophthora infestans [4]): 100% | LogP [1]: 3.37 [a]

Cn1c(/C(=N\OCc2cccc(NC(=O)C3(C)CCCCC3)n2)c2ccccc2)noc1=O [Example 40]
Eff. % (Phytophthora infestans [4]): 100% | LogP [1]: 4.36 [a]

COc1cccc(C(=O)Nc2cccc(CO/N=C(/c3ccccc3)c3noc(=O)n3C)n2)c1 [Example 44]
Eff. % (Plasmopara viticola): 98% | Eff. % (Phytophthora infestans [4]): 100% | LogP [1]: 3.62 [a]

Cn1c(/C(=N\OCc2cccc(NC(=O)C(c3ccccc3)c3ccccc3)n2)c2ccccc2)noc1=O [Example 46]
LogP [1]: 4.48 [a]

Cn1c(/C(=N\OCc2csc(NC(=O)c3ccccc3Cl)n2)c2ccccc2)noc1=O [Example 57]
LogP [3]: 3.46 [a] | Eff. % (Phytophthora infestans [4]): 85% | Eff. % [5]: 79%

Cn1c(/C(=N\OCc2cccc(NC(=O)CCC3CCCCC3)n2)c2ccccc2)noc1=O [Example 77]
LogP [3]: 4.73 [a] | Eff. % (Phytophthora infestans [4]): 100% | Eff. % [5]: 71%

COc1cccc(/C(=N/OCc2cccc(N)n2)c2noc(=O)n2C)c1 [Example 108]
LogP [3]: 1.32 [a] | Eff. % (Phytophthora infestans [4]): 100% | Eff. % [5]: 71%

CCC(C)(C)OC(=O)Nc1cccc(CO/N=C(/c2ccccc2)c2noc(=O)n2C)n1 [Example 120]
Eff. % (Plasmopara viticola): 84% | Eff. % (Puccinia recondita): 98% | LogP [3]: 1.99 [a] | Eff. % (Phytophthora infestans [4]): 100%

CCn1c(/C(=N\OCc2cccc(NC(=O)C3COc4ccccc4O3)n2)c2ccccc2)noc1=O (stereo not drawn) [Example 130]
LogP [3]: 4.14 [a] | Eff. % (Phytophthora infestans [4]): 100% | Eff. % [5]: 86%

COc1cccc(CCOC(=O)Nc2cccc(CO/N=C(/c3ccccc3)c3noc(=O)n3C)n2)c1 [Example 151]
LogP [3]: 4.11 [a] | Eff. % (Phytophthora infestans [4]): 85% | Eff. % [5]: 92%

Cn1c(/C(=N\OCc2csc(NC(=O)c3ccccc3I)n2)c2ccccc2)noc1=O [Example 158]
LogP [3]: 3.6 [a] | Eff. % (Phytophthora infestans [4]): 85% | Eff. % [5]: 80%

CCCC(C)C(=O)Nc1cccc(CO/N=C(/c2ccccc2)c2noc(=O)n2CC)n1 (stereo not drawn) [Example 172]
Eff. % (Puccinia recondita): 89% | LogP [3]: 4.06 [a] | Eff. % (Phytophthora infestans [4]): 100% | Eff. % [5]: 86%

Cn1c(/C(=N\OCc2cccc(NC(=O)CC(C)(C)C)n2)c2ccccc2)noc1=O [Example 173]
Eff. % (Plasmopara viticola): 86% | Eff. % (Puccinia recondita): 89% | LogP [3]: 3.78 [a] | Eff. % (Phytophthora infestans [4]): 100% | Eff. % [5]: 73%

C#CCCC(C)OC(=O)Nc1cccc(CO/N=C(/c2ccccc2)c2noc(=O)n2CC)n1 (stereo not drawn) [Example 207]
LogP [3]: 4.04 [a] | Eff. % (Phytophthora infestans [4]): 100% | Eff. % [5]: 79%

Cc1cccc(/C(=N/OCc2cccc(NC(=O)OC(C)CC(C)C)n2)c2noc(=O)n2C)c1 (stereo not drawn) [Example 223]
LogP [3]: 5.05 [a] | Eff. % [5]: 80%

CCCC(C)C(=O)Nc1cccc(CON=C(c2ccccc2)c2noc(=O)n2C)n1 (stereo not drawn) [Example 248]
Eff. % (Plasmopara viticola): 85% | LogP [3]: 3.8 [a] | Eff. % (Phytophthora infestans [4]): 100% | Eff. % [5]: 86%

Cn1c(/C(=N\OCc2cccc(NCCC3CCCCC3)n2)c2ccccc2)noc1=O [Example 253, 3-[(Z)-[({6-[(2-cyclohexylethyl)amino]pyridin-2-yl}methoxy)imino](phenyl)methyl]-4-methyl-1,2,4-oxadiazol-5(4H)-one]
chromatographic logP [1]: 2.96

CCn1c(C(=NOCc2cccc(NC(=O)OCCc3ccccc3)n2)c2ccccc2)noc1=O [Example 270]
LogP [3]: 4.41 [a] | Eff. % (Phytophthora infestans [4]): 100% | Eff. % [5]: 86%

Cn1c(/C(=N\OCc2cccc(N(CCC3CCCCC3)C(=O)OC(C)(C)C)n2)c2ccccc2)noc1=O [Example 279, tert-butyl (2-cyclohexylethyl){6-[({[(Z)-(4-methyl-5-oxo-4,5-dihydro-1,2,4-oxadiazol-3-yl)(phenyl)methylene]amino}oxy)methyl]pyridin-2-yl}carbamate]
chromatographic logP [1]: 6.73

CC(C)C(C)OC(=O)Nc1cccc(CO/N=C(/c2ccccc2)c2noc(=O)n2C)n1 (stereo not drawn) [Example 292]
Eff. % (Plasmopara viticola): 90% | Eff. % (Puccinia recondita): 75% | LogP [3]: 4.27 [a] | Eff. % (Phytophthora infestans [4]): 99%

C#CC(C)(C)OC(=O)Nc1cccc(CO/N=C(/c2ccccc2)c2noc(=O)n2C)n1 [Example 317]
Eff. % (Plasmopara viticola): 91% | Eff. % (Puccinia recondita): 81% | LogP [3]: 3.6 [a] | Eff. % (Phytophthora infestans [4]): 98%

COc1cccc(/C(=N/OCc2cccc(NC(=O)OCCc3ccccc3)n2)c2noc(=O)n2C)c1 [Example 325]
Eff. % (Plasmopara viticola): 84% | Eff. % (Puccinia recondita): 75% | LogP [3]: 4.19 [a] | Eff. % (Phytophthora infestans [4]): 99%

Cn1c(/C(=N\OCc2cccc(N(C(=O)Oc3ccc(F)cc3)C(=O)Oc3ccc(F)cc3)n2)c2ccccc2)noc1=O [Example 330]
LogP [3]: 4.2 [a] | Eff. % [5]: 83%

Cn1c(/C(=N\OCc2cccc(NC(=O)Cc3ccccc3)n2)c2ccccc2)noc1=O [Example 341]
LogP [3]: 3.53 [a] | Eff. % (Phytophthora infestans [4]): 100% | Eff. % [5]: 70%

CCCCC(=O)Nc1cccc(CO/N=C(/c2cccc(C)c2)c2noc(=O)n2C)n1 [Example 384]
Eff. % (Puccinia recondita): 79% | LogP [3]: 3.83 [a] | Eff. % (Phytophthora infestans [4]): 100% | Eff. % [5]: 70%

C#CCCC(C)OC(=O)Nc1cccc(CO/N=C(/c2ccccc2)c2noc(=O)n2C)n1 (stereo not drawn) [Example 395]
Eff. % (Plasmopara viticola): 93% | Eff. % (Puccinia recondita): 72% | LogP [3]: 3.8 [a] | Eff. % (Phytophthora infestans [4]): 99%

NC(=N\O)/C(=N\OCc1csc(N)n1)c1ccccc1 [Example V-2, (1Z,2Z)-2-{[(2-amino-1,3-thiazol-4-yl)methoxy]imino}-N′-hydroxy-2-phenylethanimidamide]
chromatographic logP [1]: 0.43

N/C(=N\O)C(=NOCc1cccc(N)n1)c1ccccc1 [Example V-3, (Z)-2-{[(6-aminopyridin-2-yl)methoxy]imino}-N′-hydroxy-2-phenylethanimidamide]
chromatographic logP [1]: 0.41

Cn1c(C(=O)c2ccccc2)noc1=O [VII-1, 3-benzoyl-4-methyl-1,2,4-oxadiazol-5(4H)-one]
chromatographic logP [1]: 3.21
